From the kinase profiling compilation of Christmann-Franck et al. (2016)

What was measured:
Experiment in all cases: KINOMEscan competition binding
Conditions in all cases: compound 10.0 µM
MAP2K7 (human) = MAP2K7 (human) (UniProt O14733)
MAPK11 (human) = MAPK11 (human) (UniProt Q15759)
NUAK1 (human) = NUAK1 (human) (UniProt O60285)
CAMKK2 (human) = CAMKK2 (human) (UniProt Q96RR4)
RPS6KA4 KD1 (human) = RPS6KA4 KD1 (human) (UniProt O75676)
[1] = molecular target: JAK2 JH1 catalytic (human) (UniProt O60674)
EGFR (human) = EGFR (human) (UniProt P00533)
Sequence of EGFR (human) (P00533 whole entry, looked up): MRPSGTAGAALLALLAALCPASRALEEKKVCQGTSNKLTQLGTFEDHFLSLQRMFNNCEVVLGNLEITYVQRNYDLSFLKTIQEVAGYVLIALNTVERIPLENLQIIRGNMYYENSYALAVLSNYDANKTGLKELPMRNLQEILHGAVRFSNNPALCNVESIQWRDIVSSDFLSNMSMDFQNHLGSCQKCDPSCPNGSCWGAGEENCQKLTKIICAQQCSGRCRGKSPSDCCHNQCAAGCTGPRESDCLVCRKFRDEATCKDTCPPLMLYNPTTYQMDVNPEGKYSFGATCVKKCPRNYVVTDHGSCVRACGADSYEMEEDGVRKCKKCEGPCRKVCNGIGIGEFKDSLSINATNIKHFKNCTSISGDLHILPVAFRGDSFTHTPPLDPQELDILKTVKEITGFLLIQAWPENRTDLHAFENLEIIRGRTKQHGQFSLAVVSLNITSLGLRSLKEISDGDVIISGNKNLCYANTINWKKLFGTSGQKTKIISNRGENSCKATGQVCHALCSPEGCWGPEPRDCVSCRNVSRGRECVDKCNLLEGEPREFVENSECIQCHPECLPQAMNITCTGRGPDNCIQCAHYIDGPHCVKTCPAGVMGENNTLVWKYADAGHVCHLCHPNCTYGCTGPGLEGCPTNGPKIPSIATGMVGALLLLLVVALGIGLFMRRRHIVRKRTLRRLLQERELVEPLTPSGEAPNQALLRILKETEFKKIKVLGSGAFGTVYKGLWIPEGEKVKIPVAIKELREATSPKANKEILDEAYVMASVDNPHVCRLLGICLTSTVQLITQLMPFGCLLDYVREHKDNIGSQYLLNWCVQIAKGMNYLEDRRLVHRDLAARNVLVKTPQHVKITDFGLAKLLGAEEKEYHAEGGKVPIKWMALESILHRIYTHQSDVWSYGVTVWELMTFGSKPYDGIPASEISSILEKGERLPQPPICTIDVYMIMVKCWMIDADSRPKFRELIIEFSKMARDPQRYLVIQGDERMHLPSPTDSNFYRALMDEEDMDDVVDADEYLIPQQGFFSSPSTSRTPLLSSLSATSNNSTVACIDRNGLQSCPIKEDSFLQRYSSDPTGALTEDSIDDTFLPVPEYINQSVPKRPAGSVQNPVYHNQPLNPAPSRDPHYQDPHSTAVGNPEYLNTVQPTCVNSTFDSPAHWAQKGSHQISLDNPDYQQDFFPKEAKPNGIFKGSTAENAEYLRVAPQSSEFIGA

MELK (human) = MELK (human) (UniProt Q14680)
RPS6KA4 KD2 (human) = RPS6KA4 KD2 (human) (UniProt O75676)
TESK1 (human) = TESK1 (human) (UniProt Q15569)
ACVR1 (human) = ACVR1 (human) (UniProt Q04771)
PIM3 (human) = PIM3 (human) (UniProt Q86V86)
HIPK2 (human) = HIPK2 (human) (UniProt Q9H2X6)
MARK1 (human) = MARK1 (human) (UniProt Q9P0L2)
NEK2 (human) = NEK2 (human) (UniProt P51955)
NTRK1 (human) = NTRK1 (human) (UniProt P04629)
[2] = system: EGFR (human), P00533 [747-751 del / S ins]
Sequence of EGFR (human), P00533 [747-751 del / S ins] (P00533 whole entry, looked up, stated change not applied): as the sequence (P00533 whole entry, looked up) above

HIPK4 (human) = HIPK4 (human) (UniProt Q8NE63)
CDKL2 (human) = CDKL2 (human) (UniProt Q92772)
DMPK (human) = DMPK (human) (UniProt Q09013)
CSNK1E (human) = CSNK1E (human) (UniProt P49674)
MYO3A (human) = MYO3A (human) (UniProt Q8NEV4)
MAPKAPK2 (human) = MAPKAPK2 (human) (UniProt P49137)
STK3 (human) = STK3 (human) (UniProt Q13188)
Sequence of STK3 (human) (Q13188 whole entry, looked up): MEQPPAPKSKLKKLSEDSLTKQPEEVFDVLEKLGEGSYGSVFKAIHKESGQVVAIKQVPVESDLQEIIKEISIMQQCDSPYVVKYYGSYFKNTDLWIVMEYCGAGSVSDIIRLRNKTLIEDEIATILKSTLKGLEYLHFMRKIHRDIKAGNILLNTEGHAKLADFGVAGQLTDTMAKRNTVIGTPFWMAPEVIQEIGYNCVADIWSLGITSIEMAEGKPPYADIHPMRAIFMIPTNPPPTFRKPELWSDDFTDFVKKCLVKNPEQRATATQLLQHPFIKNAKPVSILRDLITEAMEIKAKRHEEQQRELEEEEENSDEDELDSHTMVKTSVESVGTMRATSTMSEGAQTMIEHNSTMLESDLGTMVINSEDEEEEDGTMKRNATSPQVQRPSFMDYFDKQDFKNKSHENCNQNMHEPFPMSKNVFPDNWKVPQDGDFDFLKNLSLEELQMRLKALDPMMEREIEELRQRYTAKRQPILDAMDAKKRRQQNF

SGK110 (human) = SGK110 (human) (UniProt P0C264)
STK10 (human) = STK10 (human) (UniProt O94804)
DDR1 (human) = DDR1 (human) (UniProt Q08345)
MYO3B (human) = MYO3B (human) (UniProt Q8WXR4)
Sequence of MYO3B (human) (Q8WXR4 whole entry, looked up): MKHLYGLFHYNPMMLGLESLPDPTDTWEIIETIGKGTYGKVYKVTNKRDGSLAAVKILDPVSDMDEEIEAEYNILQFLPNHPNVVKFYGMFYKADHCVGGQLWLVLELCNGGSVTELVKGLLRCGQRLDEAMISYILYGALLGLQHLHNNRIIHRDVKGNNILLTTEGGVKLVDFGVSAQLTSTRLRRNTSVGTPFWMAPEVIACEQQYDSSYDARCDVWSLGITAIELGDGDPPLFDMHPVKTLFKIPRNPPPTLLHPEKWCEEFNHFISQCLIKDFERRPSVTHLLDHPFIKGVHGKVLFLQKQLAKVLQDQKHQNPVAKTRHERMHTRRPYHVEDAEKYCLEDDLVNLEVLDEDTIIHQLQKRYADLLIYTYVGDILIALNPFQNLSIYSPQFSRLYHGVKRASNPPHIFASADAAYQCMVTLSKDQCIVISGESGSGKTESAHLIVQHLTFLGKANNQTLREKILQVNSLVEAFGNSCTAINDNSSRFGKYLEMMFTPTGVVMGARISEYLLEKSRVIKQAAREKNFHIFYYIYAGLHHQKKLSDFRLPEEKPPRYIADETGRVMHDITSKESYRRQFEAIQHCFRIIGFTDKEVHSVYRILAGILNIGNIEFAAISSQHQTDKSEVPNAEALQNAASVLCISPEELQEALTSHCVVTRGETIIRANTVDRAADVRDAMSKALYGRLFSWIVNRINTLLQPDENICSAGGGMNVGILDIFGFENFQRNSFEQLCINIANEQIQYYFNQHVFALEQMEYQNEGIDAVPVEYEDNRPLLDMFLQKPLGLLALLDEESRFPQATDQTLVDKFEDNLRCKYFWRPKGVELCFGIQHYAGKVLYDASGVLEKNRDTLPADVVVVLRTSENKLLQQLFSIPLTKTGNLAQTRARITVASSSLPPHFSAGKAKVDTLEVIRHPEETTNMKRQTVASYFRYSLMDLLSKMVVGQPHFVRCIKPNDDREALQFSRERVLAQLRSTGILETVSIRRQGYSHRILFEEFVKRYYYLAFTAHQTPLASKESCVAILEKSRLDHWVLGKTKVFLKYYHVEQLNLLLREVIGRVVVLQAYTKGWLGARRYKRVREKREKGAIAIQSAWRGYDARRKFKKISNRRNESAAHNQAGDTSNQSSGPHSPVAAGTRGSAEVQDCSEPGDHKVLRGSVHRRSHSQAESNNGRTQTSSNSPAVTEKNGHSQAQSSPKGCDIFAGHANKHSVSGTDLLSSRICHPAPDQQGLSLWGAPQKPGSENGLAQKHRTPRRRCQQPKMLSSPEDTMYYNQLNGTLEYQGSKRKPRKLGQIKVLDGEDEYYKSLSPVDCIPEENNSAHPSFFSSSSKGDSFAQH

TXK (human) = TXK (human) (UniProt P42681)
ERN1 (human) = ERN1 (human) (UniProt O75460)
ICK (human) = ICK (human) (UniProt Q9UPZ9)
RIOK3 (human) = RIOK3 (human) (UniProt O14730)
BRSK1 (human) = BRSK1 (human) (UniProt Q8TDC3)
IRAK4 (human) = IRAK4 (human) (UniProt Q9NWZ3)
EPHB2 (human) = EPHB2 (human) (UniProt P29323)
SNRK (human) = SNRK (human) (UniProt Q9NRH2)
STK24 (human) = STK24 (human) (UniProt Q9Y6E0)
STK38 (human) = STK38 (human) (UniProt Q15208)
Sequence of STK38 (human) (Q15208 whole entry, looked up): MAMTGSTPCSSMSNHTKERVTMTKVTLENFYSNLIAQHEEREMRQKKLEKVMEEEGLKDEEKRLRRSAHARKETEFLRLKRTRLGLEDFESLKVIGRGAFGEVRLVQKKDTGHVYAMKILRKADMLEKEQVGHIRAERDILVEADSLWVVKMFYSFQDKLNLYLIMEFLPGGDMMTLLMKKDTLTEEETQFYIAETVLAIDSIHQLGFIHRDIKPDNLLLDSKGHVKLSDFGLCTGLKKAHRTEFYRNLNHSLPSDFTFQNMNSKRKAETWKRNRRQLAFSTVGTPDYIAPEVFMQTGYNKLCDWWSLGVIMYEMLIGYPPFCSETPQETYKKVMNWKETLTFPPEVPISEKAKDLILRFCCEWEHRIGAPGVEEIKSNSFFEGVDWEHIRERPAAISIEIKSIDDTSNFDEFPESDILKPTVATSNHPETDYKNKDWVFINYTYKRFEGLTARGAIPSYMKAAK

IKBKE (human) = IKBKE (human) (UniProt Q14164)
[3] = system: KIT (human), P10721 [V559D/V654A]

**Q.** Which results are given for COc1ccc(N(C(=O)Oc2c(C)cccc2C)c2ccnc(Nc3ccc(N4CCN(C)CC4)cc3)n2)c(OC)c1?
**A.** kinase still bound, per cent of control (MAP2K7 (human)): 85%; kinase still bound, per cent of control (MAPK11 (human)): 11%; kinase still bound, per cent of control (NUAK1 (human)): 30%; kinase still bound, per cent of control (CAMKK2 (human)): 56%; kinase still bound, per cent of control (RPS6KA4 KD1 (human)): 100%; kinase still bound, per cent of control [1]: 35%; kinase still bound, per cent of control (EGFR (human)): 0.4%; kinase still bound, per cent of control (MELK (human)): 46%; kinase still bound, per cent of control (RPS6KA4 KD2 (human)): 100%; kinase still bound, per cent of control (TESK1 (human)): 0%; kinase still bound, per cent of control (ACVR1 (human)): 0%; kinase still bound, per cent of control (PIM3 (human)): 92%; kinase still bound, per cent of control (HIPK2 (human)): 100%; kinase still bound, per cent of control (MARK1 (human)): 24%; kinase still bound, per cent of control (NEK2 (human)): 100%; kinase still bound, per cent of control (NTRK1 (human)): 78%; kinase still bound, per cent of control [2]: 0%; kinase still bound, per cent of control (HIPK4 (human)): 8.8%; kinase still bound, per cent of control (CDKL2 (human)): 0.5%; kinase still bound, per cent of control (DMPK (human)): 0.05%; kinase still bound, per cent of control (CSNK1E (human)): 23%; kinase still bound, per cent of control (MYO3A (human)): 69%; kinase still bound, per cent of control (MAPKAPK2 (human)): 100%; kinase still bound, per cent of control (STK3 (human)): 23%; kinase still bound, per cent of control (SGK110 (human)): 44%; kinase still bound, per cent of control (STK10 (human)): 0%; kinase still bound, per cent of control (DDR1 (human)): 0.25%; kinase still bound, per cent of control (MYO3B (human)): 18%; kinase still bound, per cent of control (TXK (human)): 0.45%; kinase still bound, per cent of control (ERN1 (human)): 62%; kinase still bound, per cent of control (ICK (human)): 100%; kinase still bound, per cent of control (RIOK3 (human)): 5.1%; kinase still bound, per cent of control (BRSK1 (human)): 68%; kinase still bound, per cent of control (IRAK4 (human)): 100%; kinase still bound, per cent of control (EPHB2 (human)): 0%; kinase still bound, per cent of control (SNRK (human)): 100%; kinase still bound, per cent of control (STK24 (human)): 52%; kinase still bound, per cent of control (STK38 (human)): 100%; kinase still bound, per cent of control (IKBKE (human)): 78%; kinase still bound, per cent of control [3]: 85%

**Q.** What does the source list for COc1cc2ncnc(-n3nc(-c4ccccn4)nc3N)c2cc1OC?
**A.** kinase still bound, per cent of control (MAP2K7 (human)): 77%; kinase still bound, per cent of control (MAPK11 (human)): 8.2%; kinase still bound, per cent of control (NUAK1 (human)): 100%; kinase still bound, per cent of control (CAMKK2 (human)): 9.1%; kinase still bound, per cent of control (RPS6KA4 KD1 (human)): 9.9%; kinase still bound, per cent of control [1]: 26%; kinase still bound, per cent of control (EGFR (human)): 52%; kinase still bound, per cent of control (MELK (human)): 9.2%; kinase still bound, per cent of control (RPS6KA4 KD2 (human)): 0.6%; kinase still bound, per cent of control (TESK1 (human)): 100%; kinase still bound, per cent of control (ACVR1 (human)): 0.2%; kinase still bound, per cent of control (PIM3 (human)): 7.6%; kinase still bound, per cent of control (HIPK2 (human)): 0.65%; kinase still bound, per cent of control (MARK1 (human)): 86%; kinase still bound, per cent of control (NEK2 (human)): 57%; kinase still bound, per cent of control (NTRK1 (human)): 48%; kinase still bound, per cent of control [2]: 77%; kinase still bound, per cent of control (HIPK4 (human)): 6%; kinase still bound, per cent of control (CDKL2 (human)): 2%; kinase still bound, per cent of control (DMPK (human)): 100%; kinase still bound, per cent of control (CSNK1E (human)): 1.6%; kinase still bound, per cent of control (MYO3A (human)): 72%; kinase still bound, per cent of control (MAPKAPK2 (human)): 100%; kinase still bound, per cent of control (STK3 (human)): 54%; kinase still bound, per cent of control (SGK110 (human)): 100%; kinase still bound, per cent of control (STK10 (human)): 12%; kinase still bound, per cent of control (DDR1 (human)): 88%; kinase still bound, per cent of control (MYO3B (human)): 100%; kinase still bound, per cent of control (TXK (human)): 43%; kinase still bound, per cent of control (ERN1 (human)): 46%; kinase still bound, per cent of control (ICK (human)): 47%; kinase still bound, per cent of control (RIOK3 (human)): 32%; kinase still bound, per cent of control (BRSK1 (human)): 18%; kinase still bound, per cent of control (IRAK4 (human)): 5.8%; kinase still bound, per cent of control (EPHB2 (human)): 47%; kinase still bound, per cent of control (SNRK (human)): 47%; kinase still bound, per cent of control (STK24 (human)): 56%; kinase still bound, per cent of control (STK38 (human)): 51%; kinase still bound, per cent of control (IKBKE (human)): 9.6%; kinase still bound, per cent of control [3]: 82%

**Q.** With CCN1CCN(C(=O)Cc2ccc(Nc3ncc(F)c(Nc4ccc(C(=O)Nc5ccccc5Cl)cc4)n3)cc2)CC1 as the compound, how does the kinase still bound, per cent of control (MAP2K7 (human)) read?
**A.** The kinase still bound, per cent of control was 100%.

**Q.** And the kinase still bound, per cent of control (MAPK11 (human))?
**A.** The kinase still bound, per cent of control was 81%.

**Q.** And the kinase still bound, per cent of control (NUAK1 (human))?
**A.** The kinase still bound, per cent of control was 18%.

**Q.** And the kinase still bound, per cent of control (CAMKK2 (human))?
**A.** The kinase still bound, per cent of control was 48%.

**Q.** What about the kinase still bound, per cent of control (RPS6KA4 KD1 (human)) of the same compound?
**A.** The kinase still bound, per cent of control was 100%.

**Q.** What about the kinase still bound, per cent of control [1] of the same compound?
**A.** The kinase still bound, per cent of control was 76%.

**Q.** What about the kinase still bound, per cent of control (EGFR (human)) of the same compound?
**A.** The kinase still bound, per cent of control was 26%.

**Q.** And the kinase still bound, per cent of control (MELK (human))?
**A.** Its kinase still bound, per cent of control is 55%.

**Q.** And the kinase still bound, per cent of control (RPS6KA4 KD2 (human))?
**A.** The kinase still bound, per cent of control was 100%.

**Q.** And the kinase still bound, per cent of control (TESK1 (human))?
**A.** The kinase still bound, per cent of control was 44%.

**Q.** What about the kinase still bound, per cent of control (ACVR1 (human)) of the same compound?
**A.** The kinase still bound, per cent of control was 13%.

**Q.** What about the kinase still bound, per cent of control (PIM3 (human)) of the same compound?
**A.** The kinase still bound, per cent of control was 67%.

**Q.** What about the kinase still bound, per cent of control (HIPK2 (human)) of the same compound?
**A.** The kinase still bound, per cent of control was 5%.

**Q.** And the kinase still bound, per cent of control (MARK1 (human))?
**A.** The kinase still bound, per cent of control was 51%.

**Q.** What about the kinase still bound, per cent of control (NEK2 (human)) of the same compound?
**A.** The kinase still bound, per cent of control was 87%.

**Q.** What about the kinase still bound, per cent of control (NTRK1 (human)) of the same compound?
**A.** The kinase still bound, per cent of control was 19%.

**Q.** And the kinase still bound, per cent of control [2]?
**A.** Its kinase still bound, per cent of control is 47%.

**Q.** And the kinase still bound, per cent of control (HIPK4 (human))?
**A.** Its kinase still bound, per cent of control is 2.4%.

**Q.** What about the kinase still bound, per cent of control (CDKL2 (human)) of the same compound?
**A.** The kinase still bound, per cent of control was 24%.

**Q.** What about the kinase still bound, per cent of control (DMPK (human)) of the same compound?
**A.** The kinase still bound, per cent of control was 100%.

**Q.** What about the kinase still bound, per cent of control (CSNK1E (human)) of the same compound?
**A.** Its kinase still bound, per cent of control is 100%.

**Q.** And the kinase still bound, per cent of control (MYO3A (human))?
**A.** The kinase still bound, per cent of control was 100%.

**Q.** What about the kinase still bound, per cent of control (MAPKAPK2 (human)) of the same compound?
**A.** Its kinase still bound, per cent of control is 100%.

**Q.** And the kinase still bound, per cent of control (STK3 (human))?
**A.** The kinase still bound, per cent of control was 100%.

**Q.** What about the kinase still bound, per cent of control (SGK110 (human)) of the same compound?
**A.** The kinase still bound, per cent of control was 40%.

**Q.** And the kinase still bound, per cent of control (STK10 (human))?
**A.** The kinase still bound, per cent of control was 3.4%.

**Q.** And the kinase still bound, per cent of control (DDR1 (human))?
**A.** The kinase still bound, per cent of control was 22%.

**Q.** What about the kinase still bound, per cent of control (MYO3B (human)) of the same compound?
**A.** The kinase still bound, per cent of control was 100%.

**Q.** And the kinase still bound, per cent of control (TXK (human))?
**A.** Its kinase still bound, per cent of control is 2.2%.

**Q.** What about the kinase still bound, per cent of control (ERN1 (human)) of the same compound?
**A.** Its kinase still bound, per cent of control is 91%.

**Q.** And the kinase still bound, per cent of control (ICK (human))?
**A.** Its kinase still bound, per cent of control is 100%.

**Q.** What about the kinase still bound, per cent of control (RIOK3 (human)) of the same compound?
**A.** Its kinase still bound, per cent of control is 0.2%.

**Q.** What about the kinase still bound, per cent of control (BRSK1 (human)) of the same compound?
**A.** The kinase still bound, per cent of control was 88%.

**Q.** And the kinase still bound, per cent of control (IRAK4 (human))?
**A.** The kinase still bound, per cent of control was 100%.

**Q.** What about the kinase still bound, per cent of control (EPHB2 (human)) of the same compound?
**A.** The kinase still bound, per cent of control was 93%.

**Q.** What about the kinase still bound, per cent of control (SNRK (human)) of the same compound?
**A.** Its kinase still bound, per cent of control is 89%.

**Q.** What about the kinase still bound, per cent of control (STK24 (human)) of the same compound?
**A.** Its kinase still bound, per cent of control is 32%.

**Q.** What about the kinase still bound, per cent of control (STK38 (human)) of the same compound?
**A.** The kinase still bound, per cent of control was 70%.

**Q.** What about the kinase still bound, per cent of control (IKBKE (human)) of the same compound?
**A.** The kinase still bound, per cent of control was 100%.

**Q.** And the kinase still bound, per cent of control [3]?
**A.** The kinase still bound, per cent of control was 84%.
